pIC50: −log10 of the molar value. The source made the active and inactive calls. The calls are words filed in the database; no cut-off is given here.
What was measured:
[1] = Antiproliferative activity against human M07e cells after 2 days by MTT assay; assay type: functional, cell-based; details: M-07e, 48 h
[2] = Growth inhibition of human renal cancer cell by NCI-CLS assay; assay type: functional; details: Cancer cell lines; for CC50: read-out: LC50 (the source's name)
[3] = Growth inhibition of human colon cancer cell by NCI-CLS assay; assay type: functional; details: Cancer cell lines
[4] = molecular target: NAD(P)H dehydrogenase [quinone] 1 (Homo sapiens) (UniProt P15559); assay: Induction of NQO1 activity in HUVEC at 5 uM after 24 to 48 hrs by fluorescence plate reader
[5] = Growth inhibition of human ovarian cancer cell by NCI-CLS assay; assay type: functional; details: Cancer cell lines; for CC50: read-out: LC50 (the source's name)
[6] = Antiproliferative activity against human B1647 cells after 2 days by MTT assay; assay type: functional, cell-based; details: B1647, 48 h
HEL = assay: Antiproliferative activity against human HEL cells after 2 days by MTT assay; assay type: functional, cell-based; details: 48 h
[7] = Growth inhibition of human breast cancer cell by NCI-CLS assay; assay type: functional; details: Cancer cell lines; for CC50: read-out: LC50 (the source's name)
HUVEC = assay: Cytotoxicity against HUVEC after 2 days by MTT assay; assay type: cell-based; details: Homo sapiens, 48 h
[8] = Growth inhibition of human CNS cancer cell by NCI-CLS assay; assay type: functional; details: Cancer cell lines; for CC50: read-out: LC50 (the source's name)
[9] = Growth inhibition of human melanoma cell by NCI-CLS assay; assay type: functional; details: for CC50: read-out: LC50 (the source's name)
[10] = Growth inhibition of human leukemia cell by NCI-CLS assay; assay type: functional
NSCLC = assay: Growth inhibition of human NSCLC cell by NCI-CLS assay; assay type: functional
[11] = Growth inhibition of human prostate cancer cell by NCI-CLS assay; assay type: functional; details: Cancer cell lines; for CC50: read-out: LC50 (the source's name)
[12] = Acute toxicity in athymic nude Swiss mouse administered as single dose; assay type: organism-based; details: in vivo

NAD(P)H dehydrogenase [quinone] 1 (Homo sapiens), sequence (P15559 whole entry): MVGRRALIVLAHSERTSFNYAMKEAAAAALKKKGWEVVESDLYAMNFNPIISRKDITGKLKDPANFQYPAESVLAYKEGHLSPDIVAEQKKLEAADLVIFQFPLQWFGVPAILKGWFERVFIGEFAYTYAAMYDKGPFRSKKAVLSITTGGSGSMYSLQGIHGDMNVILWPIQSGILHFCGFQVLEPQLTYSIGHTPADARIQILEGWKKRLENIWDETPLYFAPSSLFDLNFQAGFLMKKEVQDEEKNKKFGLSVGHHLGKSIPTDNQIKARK

Structure (SMILES): O=C1Nc2cc(OC(F)(F)F)ccc2/C1=C\c1cccc(/C=C2/C(=O)Nc3cc(OC(F)(F)F)ccc32)n1
- pIC50 [1]: 5.52
- GI50 [2]: 0.3 µM
- TGI [2]: 0.7 µM
- CC50 [2]: 2.9 µM
- GI50 [3]: 0.2 µM
- LC50 [3]: 2 µM
- TGI [3]: 0.5 µM
- Activity [4]: Active
- GI50 [5]: 0.4 µM
- TGI [5]: 2.5 µM
- CC50 [5]: 12.3 µM
- pIC50 [6]: 5.52
- pIC50 (HEL): 5.52
- GI50 [7]: 0.3 µM
- TGI [7]: 2 µM
- CC50 [7]: 15.8 µM
- pIC50 (HUVEC): > 5.30
- GI50 [8]: 0.3 µM
- TGI [8]: 0.8 µM
- CC50 [8]: 2.6 µM
- GI50 [9]: 0.4 µM
- TGI [9]: 1.1 µM
- CC50 [9]: 5.7 µM
- GI50 [10]: 0.2 µM
- TGI [10]: 8.9 µM
- GI50 (NSCLC): 0.4 µM
- LC50 (NSCLC): 15.5 µM
- TGI (NSCLC): 1.9 µM
- GI50 [11]: 0.1 µM
- TGI [11]: 0.3 µM
- CC50 [11]: 3.2 µM

Structure (SMILES): COc1cc2c(c(OC)c1OC)/C(=C\c1cccc(/C=C3/C(=O)Nc4cc(OC)c(OC)c(OC)c43)n1)C(=O)N2
- pIC50 [1]: 6.00
- GI50 [2]: 0.3 µM
- TGI [2]: 0.7 µM
- CC50 [2]: 4.5 µM
- GI50 [3]: 0.2 µM
- LC50 [3]: 7.2 µM
- TGI [3]: 0.5 µM
- Activity [4]: Active
- GI50 [5]: 0.3 µM
- TGI [5]: 0.8 µM
- CC50 [5]: 5.7 µM
- pIC50 [6]: 6.00
- pIC50 (HEL): 6.00
- MTD [12]: 100 mg/kg
- GI50 [7]: 0.2 µM
- TGI [7]: 1.5 µM
- CC50 [7]: 24.6 µM
- pIC50 (HUVEC): > 5.30
- GI50 [8]: 0.3 µM
- TGI [8]: 0.8 µM
- CC50 [8]: 3.2 µM
- GI50 [9]: 0.2 µM
- TGI [9]: 0.5 µM
- CC50 [9]: 2.7 µM
- GI50 [10]: 0.2 µM
- LC50 [10]: 67.6 µM
- TGI [10]: 2.8 µM
- GI50 (NSCLC): 0.3 µM
- LC50 (NSCLC): 33.1 µM
- TGI (NSCLC): 1.5 µM
- GI50 [11]: 0.3 µM
- TGI [11]: 1 µM
- CC50 [11]: 16.6 µM

Structure (SMILES): C[S+]([O-])CCCCN=C=S (configuration not stated)
- Activity [4]: Active

Structure (SMILES): Cc1[nH]c(C)c(/C=C2/C(=O)Nc3ccc(F)cc32)c1/C=C1/C(=O)Nc2ccc(F)cc21
- GI50 [2]: 9.1 µM
- TGI [2]: 32.4 µM
- CC50 [2]: 75.9 µM
- GI50 [3]: 5 µM
- LC50 [3]: 53.7 µM
- TGI [3]: 17 µM
- GI50 [5]: 8.1 µM
- TGI [5]: 25.7 µM
- CC50 [5]: 72.4 µM
- GI50 [7]: 4.9 µM
- TGI [7]: 22.4 µM
- CC50 [7]: 70.8 µM
- GI50 [8]: 3.4 µM
- TGI [8]: 13.2 µM
- CC50 [8]: 46.8 µM
- GI50 [9]: 5.1 µM
- TGI [9]: 18.2 µM
- CC50 [9]: 52.5 µM
- GI50 [10]: 2.4 µM
- LC50 [10]: 37.1 µM
- TGI [10]: 9.1 µM
- GI50 (NSCLC): 7.8 µM
- LC50 (NSCLC): 74.1 µM
- TGI (NSCLC): 25.1 µM
- GI50 [11]: 7.9 µM
- TGI [11]: 20.4 µM
- CC50 [11]: 44.7 µM
